# Experimental data taken from PubChem BioAssay (NCI).
#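 Step 1: Grow cells in 96-well plates. Step 2: Expose to compound for 48 hours at 5 concentrations. Step 3: Interpolate endpoints linearly; if unreached, use highest concentration. TGI: concentration producing complete growth inhibition.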
# Legend:
# Assay in all cases: NCI anticancer screen, dose series, 48 h
# OVCAR-5 ovarian = tested on: OVCAR-5 ovarian
# HCT-116 colon = tested on: HCT-116 colon
# HS 578T breast = tested on: HS 578T breast
# SK-OV-3 ovarian = tested on: SK-OV-3 ovarian
# BT-549 breast = tested on: BT-549 breast
# DU-145 prostate = tested on: DU-145 prostate
# SF-268 CNS = tested on: SF-268 CNS
# COLO 205 colon = tested on: COLO 205 colon
# K-562 leukemia = tested on: K-562 leukemia
# M14 melanoma = tested on: M14 melanoma
# MDA-MB-435 = tested on: MDA-MB-435
# SK-MEL-2 melanoma = tested on: SK-MEL-2 melanoma
# PC-3 prostate = tested on: PC-3 prostate
# NCI-H226 lung = tested on: NCI-H226 lung
# HCT-15 colon = tested on: HCT-15 colon
# SNB-19 CNS = tested on: SNB-19 CNS
# HOP-62 NSCLC = tested on: HOP-62 NSCLC
# OVCAR-4 ovarian = tested on: OVCAR-4 ovarian
# IGROV1 ovarian = tested on: IGROV1 ovarian
# NCI-H460 lung = tested on: NCI-H460 lung
# MOLT-4 leukemia = tested on: MOLT-4 leukemia
# SR leukemia = tested on: SR leukemia
# SF-295 CNS = tested on: SF-295 CNS
# SN12C renal = tested on: SN12C renal
# RPMI-8226 leukemia = tested on: RPMI-8226 leukemia
# MCF7 breast = tested on: MCF7 breast
# HL-60(TB) leukemia = tested on: HL-60(TB) leukemia
# CAKI-1 renal = tested on: CAKI-1 renal
# KM12 colon = tested on: KM12 colon
# A549 NSCLC = tested on: A549 NSCLC
# 786-0 renal = tested on: 786-0 renal
# CCRF-CEM leukemia = tested on: CCRF-CEM leukemia
# MDA-N = tested on: MDA-N
# MDA-MB-231 breast = tested on: MDA-MB-231 breast
# U251 CNS = tested on: U251 CNS
# T-47D breast = tested on: T-47D breast
# SW-620 colon = tested on: SW-620 colon
# SF-539 CNS = tested on: SF-539 CNS
# UO-31 renal = tested on: UO-31 renal
# NCI-H23 lung = tested on: NCI-H23 lung
# OVCAR-3 ovarian = tested on: OVCAR-3 ovarian
# NCI/ADR-RES ovarian = tested on: NCI/ADR-RES ovarian
# SK-MEL-5 melanoma = tested on: SK-MEL-5 melanoma
# EKVX NSCLC = tested on: EKVX NSCLC
# LOX IMVI melanoma = tested on: LOX IMVI melanoma
# UACC-257 melanoma = tested on: UACC-257 melanoma
# SK-MEL-28 melanoma = tested on: SK-MEL-28 melanoma
# NCI-H522 lung = tested on: NCI-H522 lung
# HCC-2998 colon = tested on: HCC-2998 colon
# A498 renal = tested on: A498 renal
# TK-10 renal = tested on: TK-10 renal
# HT29 colon = tested on: HT29 colon
# MALME-3M melanoma = tested on: MALME-3M melanoma
# OVCAR-8 ovarian = tested on: OVCAR-8 ovarian
# ACHN renal = tested on: ACHN renal
# UACC-62 melanoma = tested on: UACC-62 melanoma
# HOP-92 NSCLC = tested on: HOP-92 NSCLC
# RXF 393 renal = tested on: RXF 393 renal
# SNB-75 CNS = tested on: SNB-75 CNS
smiles,measurement,setting,value
COC(=O)C1(Cc2ccc3c(c2)CCC3)Cc2ccccc2C1O (stereo not given),TGI,OVCAR-5 ovarian,80 µM
same,TGI,HCT-116 colon,31.8 µM
same,TGI,HS 578T breast,48.1 µM
same,TGI,SK-OV-3 ovarian,44.2 µM
same,TGI,BT-549 breast,35.1 µM
same,TGI,DU-145 prostate,> 100 µM
same,TGI,SF-268 CNS,41.6 µM
same,TGI,COLO 205 colon,33.8 µM
same,TGI,K-562 leukemia,40.5 µM
same,TGI,M14 melanoma,34.9 µM
same,TGI,MDA-MB-435,36.7 µM
same,TGI,SK-MEL-2 melanoma,27.4 µM
same,TGI,PC-3 prostate,29.2 µM
same,TGI,NCI-H226 lung,36.6 µM
same,TGI,HCT-15 colon,50.7 µM
same,TGI,SNB-19 CNS,35.6 µM
same,TGI,HOP-62 NSCLC,46.3 µM
same,TGI,OVCAR-4 ovarian,27.8 µM
same,TGI,IGROV1 ovarian,51.7 µM
same,TGI,NCI-H460 lung,38.1 µM
same,TGI,MOLT-4 leukemia,35.5 µM
same,TGI,SR leukemia,75.9 µM
same,TGI,SF-295 CNS,35.2 µM
same,TGI,SN12C renal,29.2 µM
same,TGI,RPMI-8226 leukemia,80.4 µM
same,TGI,MCF7 breast,49.6 µM
same,TGI,HL-60(TB) leukemia,> 100 µM
same,TGI,CAKI-1 renal,52.3 µM
same,TGI,KM12 colon,47.6 µM
same,TGI,A549 NSCLC,49.2 µM
same,TGI,786-0 renal,32.4 µM
same,TGI,CCRF-CEM leukemia,47.5 µM
same,TGI,MDA-N,13.5 µM
same,TGI,MDA-MB-231 breast,67.4 µM
same,TGI,U251 CNS,31.1 µM
same,TGI,T-47D breast,> 100 µM
same,TGI,SW-620 colon,43.5 µM
same,TGI,SF-539 CNS,33.1 µM
same,TGI,UO-31 renal,29.2 µM
same,TGI,NCI-H23 lung,45 µM
same,TGI,OVCAR-3 ovarian,36.8 µM
same,TGI,NCI/ADR-RES ovarian,60.1 µM
same,TGI,SK-MEL-5 melanoma,29.8 µM
same,TGI,EKVX NSCLC,69.4 µM
same,TGI,LOX IMVI melanoma,34 µM
same,TGI,UACC-257 melanoma,31.5 µM
same,TGI,SK-MEL-28 melanoma,33 µM
same,TGI,NCI-H522 lung,30.1 µM
same,TGI,HCC-2998 colon,31.9 µM
same,TGI,A498 renal,33.7 µM
same,TGI,TK-10 renal,53.1 µM
same,TGI,HT29 colon,31.6 µM
same,TGI,MALME-3M melanoma,37.6 µM
same,TGI,OVCAR-8 ovarian,36 µM
same,TGI,ACHN renal,38.3 µM
same,TGI,UACC-62 melanoma,28.1 µM
Cc1ccc(/C(O)=C/c2nc3ccccc3sc2=O)c(C)c1,TGI,OVCAR-5 ovarian,> 100 µM
same,TGI,HCT-116 colon,> 100 µM
same,TGI,HS 578T breast,> 100 µM
same,TGI,SK-OV-3 ovarian,> 100 µM
same,TGI,BT-549 breast,79.6 µM
same,TGI,DU-145 prostate,> 100 µM
same,TGI,SF-268 CNS,> 100 µM
same,TGI,COLO 205 colon,> 100 µM
same,TGI,K-562 leukemia,> 100 µM
same,TGI,M14 melanoma,> 100 µM
same,TGI,MDA-MB-435,> 100 µM
same,TGI,SK-MEL-2 melanoma,> 100 µM
same,TGI,PC-3 prostate,> 100 µM
same,TGI,NCI-H226 lung,> 100 µM
same,TGI,HCT-15 colon,> 100 µM
same,TGI,SNB-19 CNS,> 100 µM
same,TGI,HOP-62 NSCLC,97.3 µM
same,TGI,OVCAR-4 ovarian,70.8 µM
same,TGI,IGROV1 ovarian,> 100 µM
same,TGI,NCI-H460 lung,> 100 µM
same,TGI,MOLT-4 leukemia,> 100 µM
same,TGI,SR leukemia,75.8 µM
same,TGI,SF-295 CNS,> 100 µM
same,TGI,SN12C renal,> 100 µM
same,TGI,RPMI-8226 leukemia,77.6 µM
same,TGI,HOP-92 NSCLC,82.4 µM
same,TGI,MCF7 breast,> 100 µM
same,TGI,HL-60(TB) leukemia,69.6 µM
same,TGI,CAKI-1 renal,> 100 µM
same,TGI,KM12 colon,> 100 µM
same,TGI,A549 NSCLC,> 100 µM
same,TGI,786-0 renal,> 100 µM
same,TGI,CCRF-CEM leukemia,> 100 µM
same,TGI,MDA-N,> 100 µM
same,TGI,MDA-MB-231 breast,> 100 µM
same,TGI,U251 CNS,> 100 µM
same,TGI,T-47D breast,> 100 µM
same,TGI,SF-539 CNS,> 100 µM
same,TGI,UO-31 renal,> 100 µM
same,TGI,NCI-H23 lung,> 100 µM
same,TGI,OVCAR-3 ovarian,> 100 µM
same,TGI,NCI/ADR-RES ovarian,> 100 µM
same,TGI,SK-MEL-5 melanoma,> 100 µM
same,TGI,EKVX NSCLC,> 100 µM
same,TGI,LOX IMVI melanoma,> 100 µM
same,TGI,UACC-257 melanoma,> 100 µM
same,TGI,RXF 393 renal,18.2 µM
same,TGI,SK-MEL-28 melanoma,> 100 µM
same,TGI,NCI-H522 lung,62.1 µM
same,TGI,HCC-2998 colon,> 100 µM
same,TGI,A498 renal,> 100 µM
same,TGI,TK-10 renal,> 100 µM
same,TGI,HT29 colon,> 100 µM
same,TGI,MALME-3M melanoma,> 100 µM
same,TGI,OVCAR-8 ovarian,> 100 µM
same,TGI,ACHN renal,> 100 µM
same,TGI,UACC-62 melanoma,> 100 µM
COC(=O)C1CCC(=S)N1C(=O)c1ccccc1 (stereo not given),TGI,OVCAR-5 ovarian,> 100 µM
same,TGI,HCT-116 colon,> 100 µM
same,TGI,HS 578T breast,> 100 µM
same,TGI,SK-OV-3 ovarian,> 100 µM
same,TGI,BT-549 breast,> 100 µM
same,TGI,DU-145 prostate,> 100 µM
same,TGI,SNB-75 CNS,> 100 µM
same,TGI,SF-268 CNS,> 100 µM
same,TGI,COLO 205 colon,> 100 µM
same,TGI,K-562 leukemia,> 100 µM
same,TGI,M14 melanoma,> 100 µM
same,TGI,MDA-MB-435,> 100 µM
same,TGI,SK-MEL-2 melanoma,> 100 µM
same,TGI,PC-3 prostate,> 100 µM
same,TGI,HCT-15 colon,> 100 µM
same,TGI,SNB-19 CNS,> 100 µM
same,TGI,HOP-62 NSCLC,> 100 µM
same,TGI,OVCAR-4 ovarian,> 100 µM
same,TGI,IGROV1 ovarian,> 100 µM
same,TGI,NCI-H460 lung,> 100 µM
same,TGI,MOLT-4 leukemia,90.3 µM
same,TGI,SF-295 CNS,> 100 µM
same,TGI,RPMI-8226 leukemia,> 100 µM
same,TGI,HOP-92 NSCLC,> 100 µM
same,TGI,MCF7 breast,> 100 µM
same,TGI,CAKI-1 renal,> 100 µM
same,TGI,KM12 colon,> 100 µM
same,TGI,A549 NSCLC,> 100 µM
same,TGI,786-0 renal,> 100 µM
same,TGI,CCRF-CEM leukemia,> 100 µM
same,TGI,MDA-N,> 100 µM
same,TGI,MDA-MB-231 breast,> 100 µM
same,TGI,U251 CNS,> 100 µM
same,TGI,T-47D breast,> 100 µM
same,TGI,UO-31 renal,> 100 µM
same,TGI,NCI-H23 lung,> 100 µM
same,TGI,OVCAR-3 ovarian,> 100 µM
same,TGI,NCI/ADR-RES ovarian,> 100 µM
same,TGI,SK-MEL-5 melanoma,> 100 µM
same,TGI,EKVX NSCLC,> 100 µM
same,TGI,UACC-257 melanoma,> 100 µM
same,TGI,RXF 393 renal,> 100 µM
same,TGI,SK-MEL-28 melanoma,> 100 µM
same,TGI,NCI-H522 lung,> 100 µM
same,TGI,HCC-2998 colon,> 100 µM
same,TGI,A498 renal,> 100 µM
same,TGI,TK-10 renal,> 100 µM
same,TGI,HT29 colon,> 100 µM
same,TGI,MALME-3M melanoma,> 100 µM
same,TGI,OVCAR-8 ovarian,> 100 µM
same,TGI,ACHN renal,> 100 µM
same,TGI,UACC-62 melanoma,> 100 µM
